Data reported in patent US10961309B2, “Reducing systemic regulatory T cell levels or activity for treatment of disease and injury of the CNS” (Yeda Research and Development Co. Ltd, priority 2014, dated 2021).
Entries after “also recorded” stand apart in the source; their conditions may differ.

What was measured:
Type in all cases: in vivo, mouse
[1] = tested on: IFN-γ-expressing immune cells in the CP; experiment: Flow cytometry of CP IFN-γ-expressing immune cells; details: p300i 1 week vs vehicle (DMSO), aged mice (18 months), a day after cessation
Description: Mice were transcardially perfused with PBS, and tissues were treated as previously described (Baruch et al, 2013). Brains were dissected and the different brain regions were removed under a dissecting microscope (Stemi DV4; Zeiss) in PBS, and tissues were dissociated using the gentleMACS™ dissociator (Miltenyi Biotec). Choroid plexus tissues were isolated from the lateral, third and fourth ventricles of the brain, incubated at 37° C. for 45 min in PBS (with Ca^2+/Mg^2+) containing 400 U/ml collagenase type IV (Worthington Biochemical Corporation), and then manually homogenized by pipetting. Spleens were mashed with the plunger of a syringe and treated with ACK (ammonium chloride potassium) lysing buffer to remove erythrocytes. In all cases, samples were stained according to the manufacturers' protocols. All samples were filtered through a 70 μm nylon mesh, and blocked with anti-Fc CD16/32 (1:100; BD Biosciences). For intracellular staining of IFN-γ, the cells were incubated with […] (10 ng/ml; Sigma-Aldrich) and ionomycin (250 ng/ml; Sigma-Aldrich) for 6 h, and Brefeldin-A (10 μg/ml; Sigma-Aldrich) was added for the last 4 h. Intracellular labeling of cytokines was done with BD Cytofix/Cytoperm™ Plus fixation/permeabilization kit (cat. no. 555028). […] Cells were analyzed on an LSRII cytometer (BD Biosciences) using FlowJo software. […]

Aβ plaques = experiment: Aβ plaque quantitation (immunohistochemistry)
Description: Tissue processing and immunohistochemistry were performed on paraffin embedded sectioned mouse (6 μm thick) and human (10 μm thick) brains. For human ICAM-1 staining, primary mouse anti-ICAM (1:20 Abcam; ab2213) antibody was used. Slides were incubated for 10 min with 3% H2O2, and a secondary biotin-conjugated anti-mouse antibody was used, followed by biotin/avidin amplification with Vectastain ABC kit (Vector Laboratories). Subsequently, 3,3′-diaminobenzidine (DAB substrate) (Zytomed kit) was applied; slides were dehydrated and mounted with xylene-based mounting solution. For tissue stainings, mice were transcardially perfused with PBS prior to tissue excision and fixation. CP tissues were isolated under a dissecting microscope (Stemi DV4; Zeiss) from the lateral, third, and fourth ventricles of the brain. For whole mount CP staining, tissues were fixated with 2.5% paraformaldehyde (PFA) for 1 hour at 4° C., and subsequently transferred to PBS containing 0.05% sodium azide. Prior to staining, the dissected tissues were washed with PBS and blocked (20% horse serum, 0.3% Triton X-100, and PBS) for 1 h at room temperature. Whole mount staining with primary antibodies (in PBS containing 2% horse serum and 0.3% Triton X-100), or secondary antibodies, was performed for 1 h at room temperature. Each step was followed by three washes in PBS. The tissues were applied to slides, mounted with Immu-mount (9990402, from Thermo Scientific), and sealed with cover-slips. For staining of sectioned brains, two different tissue preparation protocols (paraffin embedded or microtomed free-floating sections) were applied, as previously described (Baruch et al, 2013; Kunis et al, 2013). The following primary antibodies were used: mouse anti-Aβ (1:300, Covance, #SIG-39320); rabbit anti-GFP (1:100, MBL, #598); rat anti-CD68 (1:300, eBioscience, #14-0681); rat anti-ICAM-1 (1:200, Abcam, #AB2213); goat anti-GFP (1:100, Abcam, #ab6658); rabbit anti-IBA-1 (1:300, Wako, #019-19741); goat anti-IL-10 (1:20, R&D systems, #AF519); rat anti-Foxp3 (1:20, eBioscience, #13-5773-80); rabbit anti-CD3 (1:500, Dako, #IS503); mouse anti-ZO-1, mouse anti-E-Cahedrin, and rabbit anti-Claudin-1 (all 1:100, Invitrogen, #33-9100, #33-4000, #51-9000); rabbit anti-GFAP (1:200, Dako, #Z0334). Secondary antibodies included: Cy2/Cy3/Cy5-conjugated donkey anti-mouse/goat/rabbit/rat antibodies (1:200; all from Jackson Immunoresearch). The slides were exposed to Hoechst nuclear staining (1:4000; Invitrogen Probes) for 1 min. Two negative controls were routinely used in immunostaining procedures, staining with isotype control antibody followed by secondary antibody, or staining with secondary antibody alone. For Foxp3 intracellular staining, antigen retrieval from paraffin-embedded slides was performed using Retreivagen Kit (#550524, #550527; BD Pharmingen™). Microscopic analysis, was performed using a fluorescence microscope (E800; Nikon) or laser-scanning confocal microscope (Carl Zeiss, Inc.). The fluorescence microscope was equipped with a digital camera (DXM 1200F; Nikon), and with either a 20× NA 0.50 or 40× NA 0.75 objective lens (Plan Fluor; Nikon). The confocal microscope was equipped with LSM 510 laser scanning capacity (three lasers: Ar 488, HeNe 543, and HeNe 633). Recordings were made on postfixed tissues using acquisition software (NIS-Elements, F3 [Nikon] or LSM [Carl Zeiss, Inc.]). For quantification of staining intensity, total cell and background staining was measured using ImageJ software (NIH), and intensity of specific staining was calculated, as previously described (Burgess et al, 2010). Images were cropped, merged, and optimized using Photoshop CS6 13.0 (Adobe), and were arranged using Illustrator CS5 15.1 (Adobe).
From each brain, 6 μm coronal slices were collected, and eight sections per mouse, from four different pre-determined depths throughout the region of interest (dentate gyrus or cerebral cortex) were immunostained. […]

[2] = tested on: splenocytes (CD4+Foxp3+ Tregs, CD4+ IFN-γ+ T cells); experiment: Flow cytometry of splenocytes; details: p300i 8.9 mg/kg/d i.p. 1 week vs vehicle (DMSO), aged mice (18 months), a day after cessation
Description: Mice were transcardially perfused with PBS, and tissues were treated as previously described (Baruch et al, 2013). Brains were dissected and the different brain regions were removed under a dissecting microscope (Stemi DV4; Zeiss) in PBS, and tissues were dissociated using the gentleMACS™ dissociator (Miltenyi Biotec). Choroid plexus tissues were isolated from the lateral, third and fourth ventricles of the brain, incubated at 37° C. for 45 min in PBS (with Ca^2+/Mg^2+) containing 400 U/ml collagenase type IV (Worthington Biochemical Corporation), and then manually homogenized by pipetting. Spleens were mashed with the plunger of a syringe and treated with ACK (ammonium chloride potassium) lysing buffer to remove erythrocytes. In all cases, samples were stained according to the manufacturers' protocols. All samples were filtered through a 70 μm nylon mesh, and blocked with anti-Fc CD16/32 (1:100; BD Biosciences). For intracellular staining of IFN-γ, the cells were incubated with […] (10 ng/ml; Sigma-Aldrich) and ionomycin (250 ng/ml; Sigma-Aldrich) for 6 h, and Brefeldin-A (10 μg/ml; Sigma-Aldrich) was added for the last 4 h. Intracellular labeling of cytokines was done with BD Cytofix/Cytoperm™ Plus fixation/permeabilization kit (cat. no. 555028). For Treg staining, an eBioscience FoxP3 staining buffer set (cat. no. 00-5523-00) was used. The following fluorochrome-labeled monoclonal antibodies were purchased from BD Pharmingen, BioLegend, R&D Systems, or eBiosciences, and used according to the manufacturers' protocols: PE or Alexa Fluor 450-conjugated anti-CD4; PE-conjugated anti-CD25; PerCP-Cy5.5-conjugated anti-CD45; FITC-conjugated anti-TCRβ; APC-conjugated anti-IFN-γ; APC-conjugated anti-FoxP3; Brilliant-violet-conjugated anti-CD45. Cells were analyzed on an LSRII cytometer (BD Biosciences) using FlowJo software. In each experiment, relevant negative control groups, positive controls, and single stained samples for each tissue were used to identify the populations of interest and to exclude other populations.

[3] = tested on: soluble Aβ1-40 and Aβ1-42; experiment: Soluble Aβ (sAβ) protein quantification by ELISA
Description: Tissue homogenization and sAβ protein extraction was performed as previously described (Schmidt et al, 2005). Briefly, cerebral brain parenchyma was dissected and snap-frozen and kept at −80° C. until homogenization. Proteins were sequentially extracted from samples to obtain separate fractions containing proteins of differing solubility. Samples were homogenized in 10 volumes of ice-cold tissue homogenization buffer, containing 250 mM of sucrose, 20 mM of Tris base, 1 mM of ethylenediaminetetraacetic acid (EDTA), and 1 mM of ethylene glycol tetraacetic acid (pH 7.4), using a ground glass pestle in a Dounce homogenizer. After six strokes, the homogenate was mixed 1:1 with 0.4% diethylamine (DEA) in a 100-mM NaCl solution before an additional six strokes, and then centrifuged at 135,000 g at 4° C. for 45 min. The supernatant (DEA-soluble fraction containing extracellular and cytosolic proteins) was collected and neutralized with 10% of 0.5M of Tris-HCl (pH 6.8). Aβ1-40 and Aβ1-42 were individually measured by enzyme-linked immunosorbent assay (ELISA) from the soluble fraction using commercially available kits (Biolegend; #SIG-38954 and #SIG-38956, respectively) according to the manufacturer instructions.

[4] = two courses of p300i, interval of 1 month

`CC1=NN(c2ccc(C(=O)O)cc2)C(=O)/C1=C\c1ccc(-c2cc(C)c(C)cc2[N+](=O)[O-])o1` [p300i, 4-(4-((5-(4,5-dimethyl-2-nitrophenyl)furan-2-yl)methylene)-3-methyl-5-oxo-4,5-dihydro-1H-pyrazol-1-yl)benzoic acid] was tested, and the “IFN-γ-expressing immune cells in the CP” value [1] was “elevated levels; also recorded: elevation”, the “cerebral Aβ plaque load” value (Aβ plaques; p300i 1 week, examined 3 weeks later, 10-month old AD-Tg mice) was “significant reduction in cerebral Aβ plaque load” and the “cerebral plaque load (cortex 5th layer)” value (Aβ plaques; single course of p300i, examined 2 months later, AD-Tg mice age 7 months) was “reduction of cerebral plaque load was evident”. For the same compound, the “reduction of cerebral plaque load, two courses vs single course” value (Aβ plaques; two courses of p300i with a 1-month interval) was “stronger”, the “IFN-γ-expressing cells (CD4+ T cells) in the spleen” value [2] was “elevated levels; also recorded: elevation” and the “cerebral sAβ levels” value ([3]; one course of p300i) was “effective in reducing cerebral sAβ”. The “cerebral sAβ levels” value [3, 4] was “effective in reducing cerebral sAβ” and the “effect on sAβ1-42, repeated courses vs one course” value [3, 4] was “stronger”.
